Laboratory results reported in patent publication US20080288176A1 (priority 2005, published 2008).

Assays:
[1] = tested on: male Wistar rats; assay: Urine alanine aminopeptidase to creatinine ratio (proximal tubular kidney damage); assay type: in vivo, rat; conditions: for AAP/Cr (urine alanine aminopeptidase to creatinine), Mean: oral gavage, urine collected for 6 hours
Source text: (§1) Myocardial infarction and ischemic events in high risk patients led one of the most popular COX-2 inhibitors to its demise (Bresalier et al., 2005). Non-selective NSAIDS may also cause similar problems due to their ability to inhibit COX-2. […] Adenosine diphosphate (ADP) generation is an indicator of myocardial infarction which has no connection with the arachidonic acid cascade (Borna et al., 2005). […] Long term NSAID use has been linked to kidney damage and hypertension (Zafirovska et al., 1993). […] This was associated with an increase in the urine the ratio of alanine-amino-peptidase (AAP) and creatinine.
(§2) Table 1 is a summary of the protocol for a study which was conducted in male Wistar rats weighing 275-300 grams. The animals were allowed to acclimatize for at least five days prior to the commencement of the study. The study protocol was approved by the local animal ethics committee.
All test animals, housed in metabolic cages, had urine collected over wet ice for 6 hours after dosing. Aliquots of the urine from each animal were collected to determine creatinine concentration. The remainder of the urine was centrifuged at 1000 g for 10 minutes. The supernatant was collected and mixed with analytical grade ethylene glycol at a rate of 0.4 mL ethylene glycol per 1 mL urine supernatant. The ethylene glycol/urine mixture was stored at −80° C. until analysis.

[2] = tested on: male Wistar rats; assay: Gastric ulcer index after oral dosing; assay type: in vivo, rat; conditions: for Ulcer Indices, Mean: oral gavage, naproxen 250 mg/kg or molar equivalent (ROF 250 mg/kg), 6 h after dosing, mean aggregate gastric ulcer length; for Ulcerogenicity (in words): oral, 6 h
Procedure: as §2
The animals were fasted overnight prior to test substance administration. The test substance was administered orally by gavage on the morning of the study day. All test animals had blood collected during the test period in both EDTA (ethylenediaminetetraacetic acid) tubes and SST (Serum Separator Tubes) at 1, 3 and 6 hours after dosing. Blood was collected into EDTA tubes only at 1 and 3 hours by tail tip amputation. Volume of blood collected was between 0.5 and 1 mL at each of these collections. The final collection was by puncture of the abdominal vena cava under isoflurane general anesthesia. Final blood collection was targeted as follows: 1st EDTA #1—1.5 mL; 2nd SST—1.5 mL; 3rd EDTA #2—as much as possible.
Each animal from all groups underwent a full necropsy under the supervision of a board certified veterinary pathologist. The stomach of each rat was cut along the greater curvature, contents removed into a polypropylene (Falcon) tube, the mucosa rinsed with saline and any obvious ulcers or erosions were measured along the longest axis. This measurement was recorded for each ulcer or erosion observed in each stomach. The falcon tubes and their contents were frozen at −80° C. and shipped to Novokin on dry ice for analysis.
The aggregate length of all gastric ulcers found in a given animal was calculated. The mean aggregate ulcer length across animals in a group was calculated. This mean value was reported as the ulcer index for that group.
The ulcer index of each modified drug was compared with the ulcer index of its associated parent drug and the controls using analysis of variance and Duncan's multiple range test for pairwise comparisons. Statistical analysis was done using SAS® (SAS Institute Inc., Cary, N.C.).

[3] = tested on: cardiac tissue prostacyclin (PGI2) to thromboxane A2 (TXB2) ratio; assay: Cardiac tissue prostacyclin to thromboxane ratio; assay type: in vivo, rat; conditions: male Wistar rats; for Cardiac Tissue PGI2/TXB2, Mean: oral gavage, heart removed 6 hours after dosing
Source text: as §1, §2
All rats were euthanized by removal of the heart 6 hours after initial dosing, following final blood collections. Immediately after terminal blood collections were complete, the thorax was opened and the heart removed. The heart was cut in half longitudinally. Half of the heart was placed in formalin for histological examination. The other half was quickly rinsed in saline and then freeze-clamped (crushed between the jaws of a pair of modified tongs, cooled by liquid nitrogen). An entire kidney was freeze-clamped. The other kidney was left in situ for examination by the pathologist. Freeze-clamped tissues were wrapped in labeled aluminum foil and stored in liquid nitrogen until they could be transferred to a −80° C. freezer. Freeze-clamped tissues were shipped on dry ice to NOVOKIN for analysis.

[4] = Stability in gastric environment (gastric decay rate); assay type: in vitro ADME
Source text: The physiologically based pharmacokinetic/pharmacodynamic model of the present invention contains a series of compartments that describe the time course of a nonsteroidal anti-inflammatory prodrug, its active metabolites and nitric oxide release in intestine, liver, kidneys, blood/plasma and heart after prodrug administration. The time course of the prodrug, its active metabolites and nitric oxide release can be simulated using a series of in vitro and in silico inputs. The stability of each component in the gastrointestinal lumen is estimated using data collected from artificial gastric and intestinal juice. Intestinal metabolism is estimated using intestinal microsomes and absorption rate is estimated using permeability data collected from a cell monolayer such as Caco-2. Hepatic elimination is estimated using liver microsomes and stability in plasma is calculated using degradation of each component in the media. Plasma protein binding can either be measured using a standardized in vitro method or it can be estimated using an in silico method. The distribution of each component in various parts of the body is estimated using an in silico method. The rate of nitric oxide release is estimated using an in vitro endothelial cell model. The time course of prodrug, its active metabolites and nitric oxide can be simulated in human and animal using this physiologically based pharmacokinetic/pharmacodynamic model provided that the corresponding in vitro and in silico data are used as inputs.
Representative in vitro tests or in silico estimates include: (a) pKa estimation or measurement; (b) Log P measurement or in silico estimation; (c) Solubility in various physiological fluids; (d) Permeability. Caco-2 and/or NOVOKIN's proprietary animal and human cell lines can be used to obtain this parameter; (e) Metabolic rate in the intestine and liver. Human or animal intestinal microsomes, S9 fraction, and cytosol can be used for this purpose. Human or animal hepatocytes, liver microsomes, S9 fraction, and cytosol can also be used; (f) Hydrolysis in human or animal plasma; (g) Serum or plasma protein binding. It can be measured in vitro or estimated in silico; (h) The rate of NO release; (i) Existing pharmacokinetic and pharmacodynamic data of NSAID or a biocompatible agent; (j) Existing NO release rate of known diazeniumdiolate if applicable; (k) Stability in gastric and intestinal environment; and (l) In silico volume of distribution estimation.

Compound | AAP/Cr (urine alanine aminopeptidase to creatinine), Mean [1] | Ulcer Indices, Mean [2] | Ulcerogenicity (in words) [2] | Cardiac Tissue PGI2/TXB2, Mean [3] | gastric decay rate constant ([4]; Human) | gastric decay rate constant ([4]; Rat) | Urine AAP/creatinine ratio change (in words) [1] | PGI2/TXA2 ratio comparison (in words) ([3]; cardiac tissue)
COc1ccc2cc(C(C)C(=O)OCON=[N+]([O-])N3CCCC3)ccc2c1 (centres unmarked) [PYRO-NO-NAP, pyrrolidino-diazeniumdiolate-naproxen] | 195.569 | 1.450 | not significantly different from vehicle | 4.937 | 0 /mint | 0 /mint | – | –
COc1ccc2cc([C@H](C)C(=O)OCCCCO[N+](=O)[O-])ccc2c1 [AZD 3582] | 403.400 | 3.444 | severely ulcerogenic | 3.432 | 0 /mint | 0 /mint | did cause an increase | lower ratios than vehicle
